This data set in a line: activity coefficient (dimensionless); of the first substance listed, at infinite dilution; xn = mol fraction of the nth substance listed. Particulars: Liquid, Chromatography, x1 = 0.

± gives the expanded uncertainty stated by the source.

As for `Cc1ccccc1C` [1,2-dimethylbenzene] + CCCCCCCCn1cc[n+](C)c1.O=[N+]([O-])[O-], the activity coefficient (303.15 K) was determined as 1.75 ± 0.1; the activity coefficient (313.15 K) was determined as 1.77 ± 0.1; the activity coefficient (323.15 K) turned out to be 1.79 ± 0.11; the activity coefficient (333.15 K) came to 1.8 ± 0.11; the activity coefficient (343.15 K) is 1.82 ± 0.11; the activity coefficient (353.15 K) turned out to be 1.84 ± 0.11. The activity coefficient (363.15 K) worked out at 1.85 ± 0.11.

For the compound `Cc1cccc(C)c1` [1,3-dimethylbenzene] + CCCCCCCCn1cc[n+](C)c1.O=[N+]([O-])[O-], the activity coefficient is 2.02 ± 0.11 (303.15 K); 2.03 ± 0.11 (313.15 K); 2.05 ± 0.11 (323.15 K); 2.06 ± 0.11 (333.15 K); 2.07 ± 0.11 (343.15 K); 2.08 ± 0.11 (353.15 K). For the same compound, the activity coefficient (363.15 K) is 2.09 ± 0.11.

`Cc1ccc(C)cc1` [1,4-dimethylbenzene] + CCCCCCCCn1cc[n+](C)c1.O=[N+]([O-])[O-]: the activity coefficient is, setting by setting: (303.15 K) 1.98 ± 0.11; (313.15 K) 1.99 ± 0.11; (323.15 K) 2 ± 0.11; (333.15 K) 2.01 ± 0.11; (343.15 K) 2.01 ± 0.11; (353.15 K) 2.02 ± 0.11. Further, the activity coefficient (363.15 K) was 2.03 ± 0.11.

As for `CC(C)CC(C)(C)C` [2,2,4-trimethylpentane] + CCCCCCCCn1cc[n+](C)c1.O=[N+]([O-])[O-], the activity coefficient runs as follows: (303.15 K) 18.5 ± 0.66; (313.15 K) 16.8 ± 0.6; (323.15 K) 15.4 ± 0.55; (333.15 K) 14.1 ± 0.51; (343.15 K) 13.3 ± 0.48; (353.15 K) 12.3 ± 0.44. Besides, the activity coefficient (363.15 K) amounted to 11.4 ± 0.41.

On to `CC(C)=O` [acetone] + CCCCCCCCn1cc[n+](C)c1.O=[N+]([O-])[O-], for which the activity coefficient (303.15 K) is 0.84 ± 0.09; the activity coefficient (313.15 K) is 0.83 ± 0.09; the activity coefficient (323.15 K) was 0.81 ± 0.09; the activity coefficient (333.15 K) was determined as 0.79 ± 0.09; the activity coefficient (343.15 K) turned out to be 0.77 ± 0.09; the activity coefficient (353.15 K) was 0.76 ± 0.09. Moreover, for the setting “363.15 K”, the activity coefficient stood at 0.74 ± 0.09.

On to `CC#N` [acetonitrile] + CCCCCCCCn1cc[n+](C)c1.O=[N+]([O-])[O-], for which the activity coefficient is, setting by setting: (303.15 K) 0.6 ± 0.09; (313.15 K) 0.59 ± 0.09; (323.15 K) 0.58 ± 0.09; (333.15 K) 0.57 ± 0.09; (343.15 K) 0.56 ± 0.09; (353.15 K) 0.55 ± 0.09. Besides, the activity coefficient (363.15 K) amounted to 0.54 ± 0.09.

Consider `c1ccccc1` [benzene] + CCCCCCCCn1cc[n+](C)c1.O=[N+]([O-])[O-], for which the activity coefficient reads like this: (303.15 K) 0.94 ± 0.09; (313.15 K) 0.96 ± 0.09; (323.15 K) 0.97 ± 0.09; (333.15 K) 0.98 ± 0.09; (343.15 K) 0.99 ± 0.09; (353.15 K) 1 ± 0.09. Further, the activity coefficient (363.15 K) came to 1.01 ± 0.09.

Take `C1CCCCC1` [cyclohexane] + CCCCCCCCn1cc[n+](C)c1.O=[N+]([O-])[O-]: the activity coefficient (303.15 K) turned out to be 6.52 ± 0.23; the activity coefficient (313.15 K) is 6.27 ± 0.22; the activity coefficient (323.15 K) was found to be 5.89 ± 0.21; the activity coefficient (333.15 K) was found to be 5.58 ± 0.2; the activity coefficient (343.15 K) is 5.27 ± 0.19; the activity coefficient (353.15 K) is 5.09 ± 0.19. Further, the activity coefficient (363.15 K) was 4.93 ± 0.18.

As for `ClCCl` [dichloromethane] + CCCCCCCCn1cc[n+](C)c1.O=[N+]([O-])[O-], the activity coefficient (303.15 K) stood at 0.32 ± 0.09; the activity coefficient (313.15 K) turned out to be 0.33 ± 0.09; the activity coefficient (323.15 K) came to 0.34 ± 0.09; the activity coefficient (333.15 K) came to 0.36 ± 0.09; the activity coefficient (343.15 K) is 0.37 ± 0.09; the activity coefficient (353.15 K) turned out to be 0.38 ± 0.09. Under “363.15 K”, the activity coefficient is 0.39 ± 0.09.

As for `CCO` [ethanol] + CCCCCCCCn1cc[n+](C)c1.O=[N+]([O-])[O-], the activity coefficient runs as follows: (303.15 K) 0.38 ± 0.09; (313.15 K) 0.37 ± 0.09; (323.15 K) 0.35 ± 0.09; (333.15 K) 0.34 ± 0.09; (343.15 K) 0.33 ± 0.09; (353.15 K) 0.31 ± 0.09. For the setting “363.15 K”, the activity coefficient turned out to be 0.3 ± 0.09.

Take `CCOC(C)=O` [ethyl acetate] + CCCCCCCCn1cc[n+](C)c1.O=[N+]([O-])[O-]: the activity coefficient is 1.65 ± 0.1 (303.15 K); 1.64 ± 0.1 (313.15 K); 1.63 ± 0.1 (323.15 K); 1.63 ± 0.1 (333.15 K); 1.62 ± 0.1 (343.15 K); 1.61 ± 0.1 (353.15 K). Further, the activity coefficient (363.15 K) stood at 1.6 ± 0.1.

For `CCc1ccccc1` [ethylbenzene] + CCCCCCCCn1cc[n+](C)c1.O=[N+]([O-])[O-], the activity coefficient turned out to be 2.05 ± 0.11 (303.15 K, 101 kPa); 2.06 ± 0.11 (313.15 K, 101 kPa); 2.06 ± 0.11 (323.15 K, 101 kPa); 2.07 ± 0.11 (333.15 K, 101 kPa); 2.07 ± 0.11 (343.15 K, 101 kPa); 2.08 ± 0.11 (353.15 K, 101 kPa). The activity coefficient (363.15 K, 101 kPa) was 2.09 ± 0.11.

Consider `CCCCCCC` [heptane] + CCCCCCCCn1cc[n+](C)c1.O=[N+]([O-])[O-], for which the activity coefficient (303.15 K) stood at 15.4 ± 0.55; the activity coefficient (313.15 K) came out at 14.3 ± 0.51; the activity coefficient (323.15 K) is 13.3 ± 0.48; the activity coefficient (333.15 K) was 12.3 ± 0.44; the activity coefficient (343.15 K) was found to be 11.8 ± 0.42; the activity coefficient (353.15 K) was determined as 11.2 ± 0.4. The activity coefficient (363.15 K) amounted to 10.4 ± 0.37.

For `CCCCCC` [hexane] + CCCCCCCCn1cc[n+](C)c1.O=[N+]([O-])[O-], the activity coefficient by setting is: (303.15 K) 12.1 ± 0.43; (313.15 K) 11.2 ± 0.4; (323.15 K) 10.5 ± 0.37; (333.15 K) 9.74 ± 0.35; (343.15 K) 9.05 ± 0.32; (353.15 K) 8.5 ± 0.3. Moreover, the activity coefficient (363.15 K) stood at 8.16 ± 0.29.

On to `CO` [methanol] + CCCCCCCCn1cc[n+](C)c1.O=[N+]([O-])[O-], for which the activity coefficient reads like this: (303.15 K) 0.26 ± 0.09; (313.15 K) 0.26 ± 0.09; (323.15 K) 0.25 ± 0.09; (333.15 K) 0.24 ± 0.09; (343.15 K) 0.23 ± 0.09; (353.15 K) 0.23 ± 0.09. Besides, the activity coefficient (363.15 K) worked out at 0.22 ± 0.09.

On to `CC1CCCCC1` [methylcyclohexane] + CCCCCCCCn1cc[n+](C)c1.O=[N+]([O-])[O-], for which the activity coefficient (303.15 K) amounted to 7.91 ± 0.28; the activity coefficient (313.15 K) was found to be 7.7 ± 0.27; the activity coefficient (323.15 K) turned out to be 7.37 ± 0.26; the activity coefficient (333.15 K) was 7.11 ± 0.25; the activity coefficient (343.15 K) was 6.81 ± 0.24; the activity coefficient (353.15 K) was determined as 6.62 ± 0.23. For the same compound, the activity coefficient (363.15 K) amounted to 6.41 ± 0.23.

On to `CCCCCCCCC` [nonane] + CCCCCCCCn1cc[n+](C)c1.O=[N+]([O-])[O-], for which the activity coefficient amounted to 23.1 ± 0.83 (303.15 K); 21.8 ± 0.78 (313.15 K); 20.9 ± 0.75 (323.15 K); 20.1 ± 0.72 (333.15 K); 19.6 ± 0.7 (343.15 K); 18.6 ± 0.67 (353.15 K). Besides, the activity coefficient (363.15 K) is 18.2 ± 0.65.

As for `CCCCCCCC` [octane] + CCCCCCCCn1cc[n+](C)c1.O=[N+]([O-])[O-], the activity coefficient by setting is: (303.15 K) 17.9 ± 0.64; (313.15 K) 17 ± 0.61; (323.15 K) 16.2 ± 0.58; (333.15 K) 15.7 ± 0.56; (343.15 K) 15.2 ± 0.54; (353.15 K) 14.8 ± 0.53. For the same compound, the activity coefficient (363.15 K) stood at 14.1 ± 0.5.

Values taken from the NIST ThermoML archive (doi:10.1016/j.fluid.2012.05.006).
